Measured values reported in PubChem BioAssay (NCI).
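96-well plates; 48 h exposure; 5 concentrations. Endpoints by linear interpolation between flanking doses. Not reached: highest tested concentration assigned. At the TGI there is no net growth.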

Columns and labels:
Experiment in all cases: NCI tumour cell line growth inhibition, 48 h
[1] = test system: 786-0 renal
[2] = test system: A498 renal
[3] = test system: A549 NSCLC
[4] = test system: ACHN renal
[5] = test system: BT-549 breast
[6] = test system: CAKI-1 renal
[7] = test system: CCRF-CEM leukemia
[8] = test system: COLO 205 colon
[9] = test system: DU-145 prostate
[10] = test system: EKVX NSCLC
[11] = test system: HCC-2998 colon
[12] = test system: HCT-116 colon
[13] = test system: HCT-15 colon
[14] = test system: HOP-62 NSCLC
[15] = test system: HOP-92 NSCLC
[16] = test system: HS 578T breast
[17] = test system: HT29 colon
[18] = test system: IGROV1 ovarian
[19] = test system: K-562 leukemia
[20] = test system: KM12 colon
[21] = test system: LOX IMVI melanoma
[22] = test system: M14 melanoma
[23] = test system: MALME-3M melanoma
[24] = test system: MCF7 breast
[25] = test system: MDA-MB-231 breast
[26] = test system: MDA-MB-435
[27] = test system: MDA-N
[28] = test system: MOLT-4 leukemia
[29] = test system: NCI-H23 lung
[30] = test system: NCI-H460 lung
[31] = test system: NCI-H522 lung
[32] = test system: NCI/ADR-RES ovarian
[33] = test system: OVCAR-3 ovarian
[34] = test system: OVCAR-4 ovarian
[35] = test system: OVCAR-5 ovarian
[36] = test system: OVCAR-8 ovarian
[37] = test system: PC-3 prostate
[38] = test system: RPMI-8226 leukemia
[39] = test system: RXF 393 renal
[40] = test system: SF-268 CNS
[41] = test system: SF-295 CNS
[42] = test system: SK-MEL-2 melanoma
[43] = test system: SK-MEL-28 melanoma
[44] = test system: SK-MEL-5 melanoma
[45] = test system: SK-OV-3 ovarian
[46] = test system: SNB-19 CNS
[47] = test system: SNB-75 CNS
[48] = test system: SR leukemia
[49] = test system: SW-620 colon
[50] = test system: U251 CNS
[51] = test system: UACC-257 melanoma
[52] = test system: UACC-62 melanoma
[53] = test system: UO-31 renal
[54] = test system: HL-60(TB) leukemia
[55] = test system: NCI-H226 lung
[56] = test system: SF-539 CNS
[57] = test system: SN12C renal
[58] = test system: T-47D breast
[59] = test system: TK-10 renal

Measured: TGI

C/C=C\C(CC(=O)O)CC(=O)NCCC1CN(S(=O)(=O)C(F)(F)F)c2ccccc21 (centres undefined)
not listed: [54] | [55] | [56] | [57] | [58] | [59]
> 100 µM: all other assays above

OCc1ccccc1OC1OC(CO)C(O)C(O)C1O (centres undefined)
not listed: [19] | [46] | [48]
> 100 µM: all other assays above
